Laboratory results published in US7067482B2, “Cross-linked glycopeptide-cephalosporin antibiotics” (Theravance, Inc., priority 2003, dated 2006).
In brackets after ≈: the same amount, converted by molar mass.

Tests used:
[1] = tested on: methicillin-susceptible Staphylococcus aureus (MSSA 13709) and methicillin-resistant Staphylococcus aureus (MRSA 33591); assay: In vivo efficacy studies in neutropenic mice (thigh infection); details: iv, 24 h, read-out: ED50 (dose required to produce 50% of the maximum reduction in thigh titre)
[2] = tested on: MSSA 13709; assay: Minimal inhibitory concentration (MIC), broth microdilution, MSSA 13709; details: Staphylococcus aureus, read-out: MIC MSSA 13709
[3] = tested on: MRSA 33591; assay: Time-kill assay; type: cell-based, Staphylococcus aureus; details: in 24 hours; bactericidal = >=3 log decrease in bacterial cell numbers
Experimental: This time-kill assay is a method for measuring the rate of bactericidal activity of a test compound. These procedures are similar to those described in V. Lorian, “Antibiotics in Laboratory Medicine”, Fourth Edition, Williams and Wilkins (1996), pages 104–105. A rapid time-kill is desirable to quickly prevent bacterial colonization and reduce host tissue damage.
Bacterial inocula were prepared as described in Example 6 for determination of MIC. Bacteria were diluted in prewarmed media in shake flasks and incubated with shaking (200 rpm, 35° C.). At 0, 1, 4, and 24 hours samples were withdrawn from the flasks and bacteria were enumerated by plate counting. Subsequent to the initial sampling, a test compound to be assayed was added to the shake flask culture. Plate counts at these intervals previous to and following addition of the compound were expressed graphically in a time-kill curve. Bactericidal activity is defined as a greater than or equal to 3 log decrease (reduction greater than or equal to 99.9%) in bacterial cell numbers by 24 hours.
By comparison, vancomycin was bactericidal against MRSA 33591 at a concentration of 4 μg/mL in 24 hours.

[4] = tested on: MRSA 33591; assay: Minimal inhibitory concentration (MIC), broth microdilution, MRSA 33591; details: Staphylococcus aureus, read-out: MIC MRSA 33591

## CN[C@H](CC(C)C)C(=O)N[C@H]1C(=O)N[C@@H](CC(N)=O)C(=O)N[C@H]2C(=O)N[C@H]3C(=O)N[C@H](C(=O)N[C@H](C(=O)O)c4cc(O)cc(O)c4-c4cc3ccc4O)[C@H](O)c3ccc(c(Cl)c3)Oc3cc2cc(c3O[C@@H]2O[C@H](CO)[C@@H](O)[C@H](O)[C@H]2O[C@H]2C[C@](C)(N)[C@H](O)[C@H](C)O2)Oc2ccc(cc2Cl)[C@H]1O [Vancomycin, vancomycin]
[1]
  ED50: 9 mg/kg
[2]
  MIC: 1 µg/mL (≈ 0.69 µM)
[3]
  concentration at which bactericidal: 4 µg/mL
[4]
  MIC: 2 µg/mL (≈ 1.38 µM)
